Paper PMC7871391, “The novel TRPA1 antagonist BI01305834 inhibits ovalbumin-induced bronchoconstriction in guinea pigs” (Respiratory Research, 2021)

How the values were obtained:
guinea-pig lung slices = experiment: TRPA1 agonism in lung slices (airway narrowing, histamine release); conditions: data not shown
Protocol: Lung slices were used for OA and histamine induced airway narrowing studies. In order to do this, lung slices were placed in 1 ml medium and fixed with a plastic ring. After 30 min pre-treatment with the TRPA1 antagonist BI01305834 (0.01, 0.1, 1 or 10 µM) or the vehicle (10% cyclodextrin) OA (10^–5-10^2 µg.ml^−1) or histamine (10^–8-10^–2 M) dose–response curves were established. Using a microscope (Eclipse, TS100; Nikon) time-lapse images (1 frame per 2 s) of the lung slices were captured. The airway luminal area was quantified using image acquisition software (NIS-elements; Nikon) and expressed as percentage of basal area, as described previously.
Lung slices were used for OA-induced histamine determinations, with separate slices for each condition individually. BI01305834 and vehicle pre-treated lung slices were challenged with OA (10 µg.ml^−1) for 5 min. […] Histamine levels of original supernatant and homogenized lung slice supernatant were assessed by liquid chromatography in combination with isotope dilution tandem mass spectrometry (LC–MS/MS). […] Inter-assay imprecision (n = 20 days) was < 2.9% at three different levels (60, 986, 3873 nM, respectively) and limit of quantification was 3.0 nM. Histamine release was calculated as percentage of total histamine present in both supernatant and slice. […]

TRPA1 = tested on: TRPA1; parameters: method as in PMID 17686976, PMID 18954467; conditions: TRPA1-mediated calcium flux ref 46, 47; cited from earlier work

| SMILES | induction of airway narrowing (guinea-pig lung slices) | induction of histamine release (guinea-pig lung slices) | IC50 (TRPA1) |
| --- | --- | --- | --- |
| C=CCN=C=S [AITC, allyl isothiocyanate] | unable to induce | unable to induce |  |
| CC(C)c1ccc(NC(=O)Cn2cnc3c2c(=O)n(C)c(=O)n3C)cc1 [HC030031] |  |  | 6.2 to 7.5 µM |
